In patent publication US20100298141A1, “SUBSTITUTED PYRIDINE N-OXIDE HERBICIDES” (E. I. DU PONT DE NEMOURS AND COMPANY, priority 2007, published 2010):

Legend:
common groundsel = experiment: Test F preemergence test; format: in vivo, Senecio vulgaris; details: scale 0 to 100
Method in brief: (§1)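 Preemergence application to planted seeds, or postemergence to sugarcane plants; compound in non-phytotoxic solvent mix plus surfactant. Greenhouse, 14-21 days. Visual rating vs. controls.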

dallisgrass = experiment: Test F preemergence test; format: in vivo, Paspalum dilatatum; details: scale 0 to 100
Method in brief: as §1

kochia = experiment: Test F preemergence test; format: in vivo, Kochia scoparia; details: scale 0 to 100
Method in brief: as §1

itchgrass = experiment: Test F preemergence test; format: in vivo, Rottboellia cochinchinensis; details: scale 0 to 100
Method in brief: as §1

broadleaf signalgrass = experiment: Test F preemergence test; format: in vivo, Brachiaria platyphylla; details: scale 0 to 100
Method in brief: as §1

Virginia dayflower = experiment: Test F preemergence test; format: in vivo, Commelina virginica; details: scale 0 to 100
Source text: Seeds of plant species selected from bermudagrass (Cynodon dactylon), Surinam grass (Brachiaria decumbens), large crabgrass (Digitaria sanguinalis), green foxtail (Setaria viridis), goosegrass (Eleusine indica), johnsongrass (Sorghum halepense), kochia (Kochia scoparia), pitted morningglory (Ipomoea lacunosa), purple nutsedge (Cyperus rotundus), common ragweed (Ambrosia elation), mustard (Brassica nigra), guineagrass (Panicum maximum), […] (Paspalum dilatatum), barnyardgrass (Echinochloa crus-galli), southern sandbur (Cenchrus echinatus), common sowthistle (Sonchus oleraceous), prickly […] spinosa), Italian ryegrass (Lolium multiflorum), common purslane (Portulaca oleracea), broadleaf signalgrass (Brachiaria platyphylla), common groundsel (Senecio vulgaris), common chickweed (Stellaria media), Virginia dayflower (Commelina virginica), annual bluegrass (Poa annua), naked crabgrass (Digitaria nuda), […] cochinchinensis), quackgrass (Elytrigia repens), Canada horseweed (Conyza canadensis), field bindweed (Convolvulus arvensis), […] (Bidens bipinnata), common mallow (Malva sylvestris), Russian thistle (Salsola kali), and sugarcane (Saccharum officinarum) were planted and treated preemergence with test chemicals formulated in a non-phytotoxic solvent mixture which included a surfactant. At a different time, sugarcane was treated with postemergence applications of some of the test chemicals formulated in the same manner. Plants were approximately 3- to 4-leaf stage for the postemergence treatments. Treated plants and controls were maintained in a greenhouse for 14 to 21 days, after which time all species were compared to controls and visually evaluated. […] A dash (-) response means no test result.

goosegrass = experiment: Test F preemergence test; format: in vivo, Eleusine indica; details: scale 0 to 100
Method in brief: as §1

barnyardgrass = experiment: Test A pre-/postemergence greenhouse test; format: in vivo, Echinochloa crus-galli; details: for Plant response rating, Barnyardgrass: 0 to 100 scale where 0 is no effect and 100 is complete control; for Barnyardgrass plant response rating: 0 to 100 scale
Method in brief: (§2)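 Two application timings were run side by side in the greenhouse. Before emergence, compound went onto the soil surface of loam–sand pots as a directed spray; after emergence, plants at 2–10 cm and the one- to two-leaf stage were treated. Visual injury versus controls was rated at approximately day ten.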

purple nutsedge = experiment: Test F preemergence test; format: in vivo, Cyperus rotundus; details: scale 0 to 100
Method in brief: as §1

velvetleaf = experiment: Test A pre-/postemergence greenhouse test; format: in vivo, Abutilon theophrasti; details: for Plant response rating, Velvetleaf: 0 to 100 scale where 0 is no effect and 100 is complete control; for Velvetleaf plant response rating: 0 to 100 scale
Method in brief: as §2

johnsongrass = experiment: Test F preemergence test; format: in vivo, Sorghum halepense; details: scale 0 to 100
Method in brief: as §1

green foxtail = experiment: Test C pre-/postemergence test; format: in vivo, Setaria viridis; details: for Plant response rating, Foxtail, Green: 31 g ai/ha, scale 0 to 100 (0 no effect, 100 complete control)
Method in brief: (§3)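 Compounds in a non-phytotoxic solvent with surfactant applied preemergence to seeded pots and, at the same time, postemergence to plants 2–18 cm tall (1- to 4-leaf stage). Paddy tests: pots flooded to 3 cm, compound applied into the water, depth held throughout.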

Italian ryegrass = experiment: Test C pre-/postemergence test; format: in vivo, Lolium multiflorum; details: for Plant response rating, Ryegrass, Italian: 31 g ai/ha, scale 0 to 100 (0 no effect, 100 complete control)
Method in brief: as §3

[1] = Postemergence, 500 g ai/ha, 0 is no effect, 100 is complete control
[2] = Preemergence, 125 g ai/ha, 0 no effect, 100 complete control
[3] = 62 g ai/ha, Preemergence, scale 0 to 100
[4] = 125 g ai/ha, preemergence, scale 0 (no effect) to 100 (complete control)
[5] = preemergence, 250 g ai/ha, scale 0 (no effect) to 100 (complete control)
[6] = Postemergence, 125 g ai/ha, 0 is no effect, 100 is complete control

## Cc1cc([S+]([O-])Cc2c(C(F)(F)F)nn(C)c2OCC(F)(F)F)[n+]([O-])cc1Cl (stereo not drawn) [Compound 70]
Common groundsel; 62 g ai/ha, Preemergence
  Groundsel plant response rating: 98
Common groundsel; 125 g ai/ha, preemergence
  Groundsel plant response rating: 100
Common groundsel; Preemergence, 31 g ai/ha
  Plant response rating, Groundsel: 98
dallisgrass; 62 g ai/ha, Preemergence
  Dallisgrass plant response rating: 75
dallisgrass; 125 g ai/ha, preemergence
  Dallisgrass plant response rating: 98
dallisgrass; Preemergence, 31 g ai/ha
  Plant response rating, Dallisgrass: 25
kochia; 16 g ai/ha, preemergence
  Plant response rating, Kochia: 95
kochia; 62 g ai/ha, Preemergence
  Kochia plant response rating: 100
kochia; 125 g ai/ha, preemergence
  Kochia plant response rating: 100
kochia; Preemergence, 31 g ai/ha
  Plant response rating, Kochia: 95
itchgrass; 16 g ai/ha, preemergence
  Plant response rating, Itchgrass: 80
itchgrass; 62 g ai/ha, Preemergence
  Itchgrass plant response rating: 80
itchgrass; 125 g ai/ha, preemergence
  Itchgrass plant response rating: 100
itchgrass; Preemergence, 31 g ai/ha
  Plant response rating, Itchgrass: 80
Broadleaf signalgrass; 125 g ai/ha, preemergence
  Signalgrass plant response rating: 90
Broadleaf signalgrass; Preemergence, 62 g ai/ha
  Plant response rating, Signalgrass: 90
Virginia dayflower; 16 g ai/ha, preemergence
  Plant response rating, Dayflower: 90
Virginia dayflower; 62 g ai/ha, Preemergence
  Dayflower plant response rating: 100
Virginia dayflower; 125 g ai/ha, preemergence
  Dayflower plant response rating: 100
Virginia dayflower; Preemergence, 31 g ai/ha
  Plant response rating, Dayflower: 100
goosegrass; 16 g ai/ha, preemergence
  Plant response rating, Goosegrass: 60
goosegrass; 62 g ai/ha, Preemergence
  Goosegrass plant response rating: 80
goosegrass; 125 g ai/ha, preemergence
  Goosegrass plant response rating: 100
goosegrass; Preemergence, 31 g ai/ha
  Plant response rating, Goosegrass: 80
barnyardgrass; Postemergence, 125 g ai/ha
  Plant response rating, Barnyardgrass: 70
barnyardgrass; [1]
  Barnyardgrass plant response rating: 90
barnyardgrass; [2]
  Barnyardgrass plant response rating: 80
barnyardgrass; Preemergence, 500 g ai/ha
  Plant response rating, Barnyardgrass: 100
Purple nutsedge; 16 g ai/ha, preemergence
  Plant response rating, Purple Nutsedge: 0
Purple nutsedge; 62 g ai/ha, Preemergence
  Purple Nutsedge plant response rating: 20
Purple nutsedge; 125 g ai/ha, preemergence
  Purple Nutsedge plant response rating: 40
Purple nutsedge; Preemergence, 31 g ai/ha
  Plant response rating, Purple Nutsedge: 15
velvetleaf; Postemergence, 125 g ai/ha
  Plant response rating, Velvetleaf: 60
velvetleaf; [1]
  Velvetleaf plant response rating: 70
velvetleaf; [2]
  Velvetleaf plant response rating: 40
velvetleaf; Preemergence, 500 g ai/ha
  Plant response rating, Velvetleaf: 100
johnsongrass; 16 g ai/ha, preemergence
  Plant response rating, Johnsongrass: 90
johnsongrass; 62 g ai/ha, Preemergence
  Johnsongrass plant response rating: 100
johnsongrass; 125 g ai/ha, preemergence
  Johnsongrass plant response rating: 100
johnsongrass; Preemergence, 31 g ai/ha
  Plant response rating, Johnsongrass: 90
Green foxtail; [3]
  Foxtail, Green plant response rating: 100
Green foxtail; [4]
  Foxtail, Green plant response rating: 100
Green foxtail; Preemergence
  Plant response rating, Foxtail, Green: 100
Green foxtail; [5]
  Foxtail, Green plant response rating: 100
Italian ryegrass; [3]
  Ryegrass, Italian plant response rating: 85
Italian ryegrass; [4]
  Ryegrass, Italian plant response rating: 100
Italian ryegrass; Preemergence
  Plant response rating, Ryegrass, Italian: 85
Italian ryegrass; [5]
  Ryegrass, Italian plant response rating: 100

## Cn1nc(C(F)(F)F)c(C[S+]([O-])c2cccc[n+]2[O-])c1OCC(F)(F)F (racemic) [Compound 28]
Common groundsel; 62 g ai/ha, Preemergence
  Groundsel plant response rating: 100
Common groundsel; 125 g ai/ha, preemergence
  Groundsel plant response rating: 100
Common groundsel; Preemergence, 16 g ai/ha
  Plant response rating, Groundsel: 90
Common groundsel; Preemergence, 31 g ai/ha
  Plant response rating, Groundsel: 100
dallisgrass; 62 g ai/ha, Preemergence
  Dallisgrass plant response rating: 100
dallisgrass; 125 g ai/ha, preemergence
  Dallisgrass plant response rating: 100
dallisgrass; Preemergence, 16 g ai/ha
  Plant response rating, Dallisgrass: 0
dallisgrass; Preemergence, 31 g ai/ha
  Plant response rating, Dallisgrass: 40
kochia; 62 g ai/ha, Preemergence
  Kochia plant response rating: 100
kochia; 125 g ai/ha, preemergence
  Kochia plant response rating: 100
kochia; Preemergence, 16 g ai/ha
  Plant response rating, Kochia: 0
kochia; Preemergence, 31 g ai/ha
  Plant response rating, Kochia: 50
itchgrass; 62 g ai/ha, Preemergence
  Itchgrass plant response rating: 95
itchgrass; 125 g ai/ha, preemergence
  Itchgrass plant response rating: 100
itchgrass; Preemergence, 16 g ai/ha
  Plant response rating, Itchgrass: 20
itchgrass; Preemergence, 31 g ai/ha
  Plant response rating, Itchgrass: 35
Broadleaf signalgrass; 62 g ai/ha, Preemergence
  Signalgrass plant response rating: 90
Broadleaf signalgrass; 125 g ai/ha, preemergence
  Signalgrass plant response rating: 100
Broadleaf signalgrass; Preemergence, 31 g ai/ha
  Plant response rating, Signalgrass: 75
Virginia dayflower; 62 g ai/ha, Preemergence
  Dayflower plant response rating: 100
Virginia dayflower; 125 g ai/ha, preemergence
  Dayflower plant response rating: 100
Virginia dayflower; Preemergence, 16 g ai/ha
  Plant response rating, Dayflower: 20
Virginia dayflower; Preemergence, 31 g ai/ha
  Plant response rating, Dayflower: 100
goosegrass; 62 g ai/ha, Preemergence
  Goosegrass plant response rating: 100
goosegrass; 125 g ai/ha, preemergence
  Goosegrass plant response rating: 100
goosegrass; Preemergence, 16 g ai/ha
  Plant response rating, Goosegrass: 65
goosegrass; Preemergence, 31 g ai/ha
  Plant response rating, Goosegrass: 98
barnyardgrass; [6]
  Barnyardgrass plant response rating: 80
barnyardgrass; [1]
  Barnyardgrass plant response rating: 90
barnyardgrass; [2]
  Barnyardgrass plant response rating: 90
barnyardgrass; Preemergence, 500 g ai/ha
  Plant response rating, Barnyardgrass: 100
Purple nutsedge; 62 g ai/ha, Preemergence
  Purple Nutsedge plant response rating: 80
Purple nutsedge; 125 g ai/ha, preemergence
  Purple Nutsedge plant response rating: 90
Purple nutsedge; Preemergence, 16 g ai/ha
  Plant response rating, Purple Nutsedge: 0
Purple nutsedge; Preemergence, 31 g ai/ha
  Plant response rating, Purple Nutsedge: 25
velvetleaf; [6]
  Velvetleaf plant response rating: 70
velvetleaf; [1]
  Velvetleaf plant response rating: 80
velvetleaf; [2]
  Velvetleaf plant response rating: 80
velvetleaf; Preemergence, 500 g ai/ha
  Plant response rating, Velvetleaf: 100
johnsongrass; 62 g ai/ha, Preemergence
  Johnsongrass plant response rating: 100
johnsongrass; 125 g ai/ha, preemergence
  Johnsongrass plant response rating: 100
johnsongrass; Preemergence, 16 g ai/ha
  Plant response rating, Johnsongrass: 40
johnsongrass; Preemergence, 31 g ai/ha
  Plant response rating, Johnsongrass: 75
Green foxtail; [3]
  Foxtail, Green plant response rating: 100
Green foxtail; Preemergence
  Plant response rating, Foxtail, Green: 100
Green foxtail; Preemergence, 250 g ai/ha
  Plant response rating (0 to 100), Foxtail, Green: 100
Italian ryegrass; [3]
  Ryegrass, Italian plant response rating: 85
Italian ryegrass; Preemergence
  Plant response rating, Ryegrass, Italian: 80
